# From US20060252807A1, “Novel ortho-terphenyl inhibitors of p38 kinase and methods of treating inflammatory disorders” (Kalypsys, Inc., priority 2005, published 2006)
# Target: T1, active p38 alpha enzyme (Upstate Biotechnology) (Homo sapiens, UniProt Q16539)
# T1 construct: purchased Upstate Biotechnology
# Assay: p38α biochemical assay (ATP turnover, luminescent detection, Cambrex PKlight)
# Conditions: p38α biochemical assay, Table 1 Biological Activity
# Summary of the method: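 Luminescent ATP-depletion readout measures total ATP turnover by p38α phosphorylating whole MapkapK2 protein. ATP 1.4 uM final; 30C, 2 h. Compounds delivered from DMSO.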
# T1 sequence (Q16539 whole entry): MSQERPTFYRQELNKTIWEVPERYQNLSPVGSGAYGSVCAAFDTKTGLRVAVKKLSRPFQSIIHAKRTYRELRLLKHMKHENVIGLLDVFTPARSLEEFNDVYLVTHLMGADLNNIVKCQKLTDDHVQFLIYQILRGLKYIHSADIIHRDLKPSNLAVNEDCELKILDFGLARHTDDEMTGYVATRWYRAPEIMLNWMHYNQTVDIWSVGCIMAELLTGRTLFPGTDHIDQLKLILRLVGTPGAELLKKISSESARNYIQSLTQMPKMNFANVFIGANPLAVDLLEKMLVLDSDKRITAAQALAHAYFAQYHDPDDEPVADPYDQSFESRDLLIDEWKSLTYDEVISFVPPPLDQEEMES
row,IC50 [µM],SMILES
1,> 1,CC(C)NC(=O)c1csc(-c2c(-c3ccc(F)cc3)noc2CNC(=O)c2ccnc(Cl)c2)n1 [Example 629]
2,> 1,CC(C)NC(=O)c1csc(-c2c(-c3ccc(F)cc3)noc2CNC(=O)c2cc(Cl)ccn2)n1 [Example 630]
3,≤ 1,CC(C)NC(=O)c1csc(-c2c(-c3ccc(F)cc3)noc2CNC(=O)c2ccncc2Cl)n1 [Example 631]
4,> 1,CC(C)NC(=O)c1csc(-c2c(-c3ccc(F)cc3)noc2CNC(=O)c2c(F)cccc2F)n1 [Example 632]
5,> 1,CC(C)NC(=O)c1csc(-c2c(-c3ccc(F)cc3)noc2CNC(=O)c2cccc(F)c2F)n1 [Example 633]
6,> 1,CC(C)NC(=O)c1csc(-c2c(-c3ccc(F)cc3)noc2CNC(=O)c2ccc(F)cc2F)n1 [Example 634]
7,> 1,CC(C)NC(=O)c1csc(-c2c(-c3ccc(F)cc3)noc2CNC(=O)c2cc(F)cc(F)c2)n1 [Example 635]
8,> 1,CC(C)NC(=O)c1csc(-c2c(-c3ccc(F)cc3)noc2CNC(=O)c2ccc(F)c(F)c2)n1 [Example 636]
9,> 1,CC(CC(=O)NCc1onc(-c2ccc(F)cc2)c1-c1nc(C(=O)NC(C)C)cs1)CC(C)(C)C (centres unmarked) [Example 637]
10,> 1,CC(C)NC(=O)c1csc(-c2c(-c3ccc(F)cc3)noc2CNC(=O)c2cc3ccccc3o2)n1 [Example 638]
11,> 1,CC(C)NC(=O)c1csc(-c2c(-c3ccc(F)cc3)noc2CNC(=O)C2CCc3ccccc32)n1 (centres unmarked) [Example 639]
12,> 1,CC(C)NC(=O)c1csc(-c2c(-c3ccc(F)cc3)noc2CNC(=O)C(Cl)(Cl)Cl)n1 [Example 640]
13,> 1,CC(C)NC(=O)c1csc(-c2c(-c3ccc(F)cc3)noc2CNC(=O)/C=C/c2ccccc2O)n1 [Example 641]
14,> 1,CC(=O)c1ccc(C(=O)NCc2onc(-c3ccc(F)cc3)c2-c2nc(C(=O)NC(C)C)cs2)cc1 [Example 642]
15,> 1,CC(C)NC(=O)c1csc(-c2c(-c3ccc(F)cc3)noc2CNC(=O)/C=C/c2cccc(O)c2)n1 [Example 643]
16,> 1,CC(=O)c1cccc(C(=O)NCc2onc(-c3ccc(F)cc3)c2-c2nc(C(=O)NC(C)C)cs2)c1 [Example 644]
17,> 1,CC(=O)c1ccccc1C(=O)NCc1onc(-c2ccc(F)cc2)c1-c1nc(C(=O)NC(C)C)cs1 [Example 645]
18,> 1,CC(C)NC(=O)c1csc(-c2c(-c3ccc(F)cc3)noc2CNC(=O)c2ccc(C(C)C)cc2)n1 [Example 646]
19,> 1,Cc1ccccc1CCC(=O)NCc1onc(-c2ccc(F)cc2)c1-c1nc(C(=O)NC(C)C)cs1 [Example 647]
20,> 1,Cc1cccc(CCC(=O)NCc2onc(-c3ccc(F)cc3)c2-c2nc(C(=O)NC(C)C)cs2)c1 [Example 648]
21,> 1,CCC(C(=O)NCc1onc(-c2ccc(F)cc2)c1-c1nc(C(=O)NC(C)C)cs1)c1ccccc1 (centres unmarked) [Example 649]
22,> 1,Cc1cc(C)c(C(=O)NCc2onc(-c3ccc(F)cc3)c2-c2nc(C(=O)NC(C)C)cs2)c(C)c1 [Example 650]
23,> 1,CCCc1ccc(C(=O)NCc2onc(-c3ccc(F)cc3)c2-c2nc(C(=O)NC(C)C)cs2)cc1 [Example 651]
24,> 1,CC(C)NC(=O)c1csc(-c2c(-c3ccc(F)cc3)noc2CNC(=O)c2ccc3c(c2)OCO3)n1 [Example 652]
25,≤ 1,CC(C)NC(=O)c1csc(-c2c(-c3ccc(F)cc3)noc2CNC(=O)/C=C/c2ccccc2F)n1 [Example 653]
26,> 1,CCOc1ccccc1C(=O)NCc1onc(-c2ccc(F)cc2)c1-c1nc(C(=O)NC(C)C)cs1 [Example 654]
27,> 1,Cc1ccccc1OCC(=O)NCc1onc(-c2ccc(F)cc2)c1-c1nc(C(=O)NC(C)C)cs1 [Example 655]

row,IC50 [µM],SMILES
1,> 1,CC(C)NC(=O)c1csc(-c2c(-c3ccc(F)cc3)noc2CNC(=O)CCc2ccccc2O)n1 [Example 656]
2,> 1,COc1ccccc1CC(=O)NCc1onc(-c2ccc(F)cc2)c1-c1nc(C(=O)NC(C)C)cs1 [Example 657]
3,> 1,CC(C)NC(=O)c1csc(-c2c(-c3ccc(F)cc3)noc2CNC(=O)C(C)c2ccc(O)cc2)n1 (centres unmarked) [Example 658]
4,> 1,CC(C)NC(=O)c1csc(-c2c(-c3ccc(F)cc3)noc2CNC(=O)c2ccccc2[N+](=O)[O-])n1 [Example 659]
5,> 1,CC(C)NC(=O)c1csc(-c2c(-c3ccc(F)cc3)noc2CNC(=O)c2cccc([N+](=O)[O-])c2)n1 [Example 660]
6,> 1,COc1cccc(O)c1C(=O)NCc1onc(-c2ccc(F)cc2)c1-c1nc(C(=O)NC(C)C)cs1 [Example 661]
7,> 1,COc1ccc(O)c(C(=O)NCc2onc(-c3ccc(F)cc3)c2-c2nc(C(=O)NC(C)C)cs2)c1 [Example 662]
8,> 1,COc1ccc(C(=O)NCc2onc(-c3ccc(F)cc3)c2-c2nc(C(=O)NC(C)C)cs2)c(O)c1 [Example 663]
9,> 1,COc1ccc(C(=O)NCc2onc(-c3ccc(F)cc3)c2-c2nc(C(=O)NC(C)C)cs2)cc1O [Example 664]
10,> 1,CC(C)NC(=O)c1csc(-c2c(-c3ccc(F)cc3)noc2CNC(=O)c2cc(O)c(O)c(O)c2)n1 [Example 665]
11,> 1,CC(C)NC(=O)c1csc(-c2c(-c3ccc(F)cc3)noc2CNC(=O)Cc2ccc(O)c(F)c2)n1 [Example 666]
12,> 1,Cc1cc(C(=O)NCc2onc(-c3ccc(F)cc3)c2-c2nc(C(=O)NC(C)C)cs2)cc(Cl)n1 [Example 667]
13,> 1,CC(C)NC(=O)c1csc(-c2c(-c3ccc(F)cc3)noc2CNC(=O)Cc2c(F)cccc2F)n1 [Example 668]
14,≤ 1,CC(C)NC(=O)c1csc(-c2c(-c3ccc(F)cc3)noc2CNC(=O)c2cccc3ccccc23)n1 [Example 669]
15,> 1,CC(C)NC(=O)c1csc(-c2c(-c3ccc(F)cc3)noc2CNC(=O)c2ccc(Cl)cc2O)n1 [Example 670]
16,> 1,CC(C)NC(=O)c1csc(-c2c(-c3ccc(F)cc3)noc2CNC(=O)c2cc(Cl)ccc2O)n1 [Example 671]
17,> 1,CC(C)NC(=O)c1csc(-c2c(-c3ccc(F)cc3)noc2CNC(=O)c2ccc3ncccc3c2)n1 [Example 672]
18,> 1,CC(C)NC(=O)c1csc(-c2c(-c3ccc(F)cc3)noc2CNC(=O)c2cnc(O)c(Cl)c2)n1 [Example 673]
19,> 1,CC(C)NC(=O)c1csc(-c2c(-c3ccc(F)cc3)noc2CNC(=O)c2ccc(F)cc2Cl)n1 [Example 674]
20,> 1,CC(C)NC(=O)c1csc(-c2c(-c3ccc(F)cc3)noc2CNC(=O)c2c(F)cccc2Cl)n1 [Example 675]
21,> 1,CC(C)NC(=O)c1csc(-c2c(-c3ccc(F)cc3)noc2CNC(=O)CNC(=O)OC(C)(C)C)n1 [Example 676]
22,> 1,Cc1c(C(=O)NCc2onc(-c3ccc(F)cc3)c2-c2nc(C(=O)NC(C)C)cs2)oc2ccccc12 [Example 677]
23,> 1,CC(C)NC(=O)c1csc(-c2c(-c3ccc(F)cc3)noc2CNC(=O)CC2Cc3ccccc3C2)n1 [Example 678]
24,> 1,CC(C)NC(=O)c1csc(-c2c(-c3ccc(F)cc3)noc2CNC(=O)C2CCc3ccccc3C2)n1 (centres unmarked) [Example 679]
25,> 1,COc1ccccc1/C=C/C(=O)NCc1onc(-c2ccc(F)cc2)c1-c1nc(C(=O)NC(C)C)cs1 [Example 680]
26,> 1,CC(C)NC(=O)c1csc(-c2c(-c3ccc(F)cc3)noc2CNC(=O)c2csc3ccccc23)n1 [Example 681]
